Data from patent US10030002B2, “Coumarin derivative for detection of cysteine and process for the synthesis thereof” (COUNCIL OF SCIENTIFIC & INDUSTRIAL RESEARCH, priority 2015, dated 2018).

How the values were obtained:
[1] = cited from earlier work
[2] = thiol pKa; cited from earlier work
[3] = Fluorescence response of probe L to amino acids and Cys in HEPES:CH3CN (9:1), pH 7
Text: In the absence of Cys, probe L is almost non fluorescent (Φf=0.06), upon addition of Cys (0-1000 equiv.), fluorescence intensity is increased remarkably up to 7 fold with an emission band centered at 524 nm (λExt=445 nm) (FIG. 2B). […] The quantum yield of probe after the addition of Cys increases (Φf=0.32) with respect to fluorescein (Φf=0.92). The fluorescence turn on response of the probe upon addition of Cys is due to the formation of 1,4 conjugate addition product, which blocks the PET quenching by nitro olefin and also ICT process from diethylamino to nitro olefin unit. The results were in well agreement with our proposed hypothesis. […] The fluorescence intensities of the probe at 524 nm show a good linear relationship with the concentration of Cys between 0 to 1000 μM. The detection limit of Cys is determined as 23.65 nM (23.65×10^−9) based on S/N=3. (FIG. 8)
Cys being a low pKa protein thiol, at neutral pH, the thiolate/thiol ratio is higher for Cys than for Hcy and GSH, which results in greater reactivity of Cys with the probe. This could be the reason for getting selectivity to Cys over Hcy and GSH at pH 7. Also pH 7, being neutral, much suitable for biological studies.
(§1) 5×10^−3M stock solution of 7-(diethylamino)-3-((E)-4-((E)-2-nitrovinyl)styryl)-2H-chromen-2-one was prepared in CH3CN and the same solution was used for all the studies after appropriate dilution. Unless and otherwise mentioned, 10 mM and pH 7 solution of aq. HEPES buffer was used for all spectroscopic studies. All amino acid solutions of 1.0×10^−1M were prepared in HEPES buffer (pH 7). For spectroscopic measurements, stock solution of the probe was further diluted by using HEPES:CH3CN (9:1) mixture and the effective final concentration was made as 10 μM. All luminescence measurements were done using λext=445 nm with an emission slit width of 2 nm. The fluorescence quantum yield was determined according to literature method using fluorescein (in 0.1M NaOH) as reference (Φf=0.92).

whey protein = assay: Detection of cysteine in whey protein from raw milk; settings: L 10 μM, whey 500 μl, NAC 0-500 μl
Text: Suitability of this reagent for specific recognition and estimation of Cys-residues present in natural milk proteins was also explored. For this study whey protein was isolated from milk. Initially some fluorescence was observed, which is due to the presence of free Cys. Then NAC tablets are used to reduce the disulfides present in whey. […] So, this reagent could be used as protein labeling agent to specifically label the Cys present in proteins.
Raw milk was subjected to fermentation and the liquid whey which was settled above after fermentation process was separated by filtration. A varying amount of whey ranging from 500 μl was added to Probe L (7-(diethylamino)-3-((E)-4-((E)-2-nitrovinyl)styryl)-2H-chromen-2-one) (10 μM) in HEPES:ACN at pH 7. Varying concentrations of N-Acetyl Cysteine (0-500 μl) was added to each of the above solution in order to hydrolyse the bound Cysteine present in whey protein (NAC solution was prepared by dissolving NAC tablets in buffer as mentioned in the enzymatic study). Luminescence changes were recorded after 45-50 minutes of incubation at room temperature. The remaining derivatives of probe L may give similar kind of response.

[4] = UV-Vis absorption response of probe L to amino acids and Cys
Text: With the addition of Cys (0-100 equiv.), absorption band at 468 nm gradually decreases and a new band appeared at 438 nm with a visible colour change from red to green (FIG. 1B). A hypsochromic shift (˜30 nm) with three well defined isosbestic points are observed at 445 nm, 372 nm and 325 nm. This Cys-induced hypsochromic shift indicates the suppression of ICT process from donor diethylamino unit to acceptor nitroalkene unit.
as §1

[5] = Comparison of Formula (L) with prior art coumarin derivatives
Text: In still yet another embodiment, the present invention provides the comparison study of said coumarin derivatives of Formula (L) with previous prior arts coumarin derivative.

[6] = Time dependent fluorescence response of probe L with biothiols
Method: Time dependent fluorescence response of probe L or compound of Formula (L) is carried out with 200 equiv of Cys. […] (FIG. 4).

[7] = TLC test strips coated with probe L
Method: The same strategy is further extended to detect Cys in blood plasma and the Cys released in an enzymatic reaction as well. […] The same methodology is further extended to detect the enzymatically generated Cys from NAC.
TLC test strips were prepared by coating 5 μM of 7-(diethylamino)-3-((E)-4-((E)-2-nitrovinyl)styryl)-2H-chromen-2-one solution in acetonitrile on silica TLC plates. 5 μl of Cys (1.0×10^−1M) in 10 mM aq.HEPES buffer (pH7) was added on it, dried and the visual as well as fluorescence colour changes were observed after 5 min. The same was repeated for Hcy and GSH as well. To detect Cys in blood plasma, 20 μl of blood plasma was diluted (10 μl plasma+10 μl buffer) was added on probe quoted TLC plate. Same methodology was repeated for enzymatic reaction on TLC plate by using 10 μl of NAC and amino acylase-1 enzyme.

amino acylase-1 = assay: Detection of Cys generated enzymatically from NAC; type: biochemical
Text: In another preferred embodiment, the detection of Cys generated in an enzymatic reaction is studied. N-acetyl-cysteine (NAC) is employed as substrate and amino acylase-1 as an enzyme. N-acetyl-cysteine, an acetylated form of Cys, a well known pro-drug used as a cysteine supplement in treatment of glutathione replenishment, acetaminophen over dose, HIV patients etc. NAC supplement releases the Cys inside the cells. […] Amino acylases are a class of enzymes which specifically hydrolyses the N-acetylated amino acids to release the free amino acids. There are many amino acylases known for de-acetylation of acetylated amino acids, among them Amino acylase-1 is well known for its ability to hydrolyse acetylated cysteine.
Cipla made effervescent tablets of N-Acetyl-Cysteine were purchased from commercially available sources. Based on the quantity of NAC present in the tablet, 1.0×10^−1M tablet solution was prepared in 10 mM aq.
HEPES buffer solution (pH7). Enzyme solution was prepared according to the requirement by dissolving 1 mg/ml in 10 mM aq.HEPES buffer solution (pH7). A fixed concentration of NAC (200 equiv.) was added to the 10 μM probe in HEPES:CH3CN (9:1, v/v). Since 1 mg of solid enzyme contains 3301 units of protein and 1 unit can hydrolyse 1 μM of substrate, accordingly enzyme concentration was varied with respect to the substrate concentration.
10 μM of 7-(diethylamino)-3-((E)-4-((E)-2-nitrovinyl)styryl)-2H-chromen-2-one is treated with 200 equiv. of NAC and different concentration of enzyme (0-2000 units) was added and the resulting solution was incubated at 37° C. for the time period ranging from 45 to 50 mins. Initially there is no fluorescence because NAC cannot bind to probe and fluorescence is turned on gradually with time, which indicates the hydrolysis of NAC by Amino acylase-1 to release of Cys. Fluorescence intensity increases with the increase in concentration of enzyme (0 to 2000 units) as more and more amounts of Cys was released from NAC by the enzymatic activity (FIG. 6). […]

[8] = HEPES:CH3CN (9:1), pH 7, with respect to fluorescein

## O=C(/C=C/c1ccc2ccccc2n1)c1cc2cc3c4c(c2oc1=O)CCCN4CCC3
[1]
  sensitivity or specificity of prior art probe (comparison): Detect only micromolar range

## CCN(CC)c1ccc2cc(/C=C/[N+](=O)[O-])c(=O)oc2c1
[1]
  sensitivity or specificity of prior art probe (comparison): Not specific to Cys

## N[C@@H](CCC(=O)N[C@@H](CS)C(=O)NCC(=O)O)C(=O)O [GSH, Glutathione]
[2]
  pKa: 9.5

## N[C@@H](CCS)C(=O)O [Hcy, Homocysteine]
[2]
  pKa: 10.0

## CCN(CC)c1ccc2cc(/C=C/c3ccc(/C=C/[N+](=O)[O-])cc3)c(=O)oc2c1 [L, 7-(diethylamino)-3-((E)-4-((E)-2-nitrovinyl)styryl)-2H-chromen-2-one]
[3]
  linear range of fluorescence intensity at 524 nm with concentration of Cys: 0 to 1000 µM
[3]; Cys, Hcy and GSH with increasing pH
  pH dependent selectivity: selectivity of probe to Cys at pH 7
[3]; [8]
  fluorescence quantum yield (Φf) after the addition of Cys: 0.32
  fluorescence quantum yield (Φf) in the absence of Cys: 0.06
[3]; L 10 μM, Cys 0-1000 equiv., emission 524 nm, λExt=445 nm
  fluorescence intensity increase upon addition of Cys: up to 7 fold
[3]; L 10 μM, amino acids 200 equiv., pH 7
  fluorescence response to amino acids (selectivity): Only Cys gives an enhancement in the fluorescence
[3]; based on S/N=3, fluorescence at 524 nm
  detection limit of Cys: 23.65 nM
[3]; identical conditions, pH 7
  fluorescence response to Hcy and GSH: does not give any significant changes in fluorescence
Whey protein
  fluorescence with whey and NAC: fluorescence intensity of L gradually increases
[4]; Cys 0-100 equiv., 468 nm to 438 nm
  hypsochromic shift of the absorption band upon addition of Cys: ~30 nm
[4]; L 10 μM, amino acids 100 equiv., pH 7
  absorption response to amino acids (selectivity): Only Cys gives an observable change in absorption spectra
[5]
  sensitivity of Cys detection (comparison): in nanomolar range.
[6]; 200 equiv of Cys
  time to completion of the reaction with Cys: 25 min
[6]; 200 equiv. each
  time dependent fluorescence with Hcy and GSH: no significant changes in the fluorescence observed
[7]
  response of probe coated TLC plates to Hcy and GSH: does not give any observable visible as well as fluorescence changes
[7]; 5 μM L on silica TLC, 365 nm UV lamp
  colour change of probe coated TLC plates with Cys: changes from red to yellowish green
Amino acylase-1; L 10 μM, NAC 200 equiv., enzyme 0-2000 units, 37° C.
  fluorescence after addition of aminoacylase-1: fluorescent intensity gradually increases
Amino acylase-1; L 10 μM, NAC 200 equiv., pH 7
  emission at 520 nm with NAC in absence of aminoacylase-1: no change in emission intensity was observed
Amino acylase-1; room temperature
  reaction time at room temperature: more than 90 min
